In publication PMC10374108, “Structural and biochemical characterization of the key components of an auxin degradation operon from the rhizosphere bacterium Variovorax” (PLOS Biology, 2023):
Values joined by “and” are separate entries in the source; they are usually repeats but may differ in a detail not shown here. Equal values may be shown once. Read-outs that look alike come from different tables or passages of the source.

Assays:
IadK2 = IadK2 (Variovorax paradoxus, UniProt T1X8R6); experiment: ITC, auxins binding to IadK2
Chain of IadK2 (T1X8R6 entry or part of it): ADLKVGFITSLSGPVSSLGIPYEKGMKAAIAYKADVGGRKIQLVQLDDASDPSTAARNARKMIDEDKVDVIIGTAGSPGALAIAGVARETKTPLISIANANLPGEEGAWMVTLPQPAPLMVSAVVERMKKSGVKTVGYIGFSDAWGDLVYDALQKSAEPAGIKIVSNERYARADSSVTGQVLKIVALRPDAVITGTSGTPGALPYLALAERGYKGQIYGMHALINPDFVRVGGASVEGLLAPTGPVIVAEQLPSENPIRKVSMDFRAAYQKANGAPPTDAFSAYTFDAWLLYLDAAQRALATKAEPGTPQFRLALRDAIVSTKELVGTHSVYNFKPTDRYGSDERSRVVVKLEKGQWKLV
Procedure: (§1) ITC experiments were performed using a MicroCal PEAQ-ITC system (Malvern). All the experiments were performed at […] in a buffer containing 25 mM Tris-HCl (pH 7.5) and 150 mM NaCl (unless otherwise stated). […] Data was analyzed using the MicroCal PEAQ-ITC analysis software. All the measurements were repeated at least 2 times.

[1] = system: IadD/E-IadC dioxygenase system; experiment: In vitro IAA and analogs transformation assay, IadC + IadD/E; assay type: biochemical, Variovorax paradoxus CL14; conditions: normalised, replicates
Procedure: The reaction mixture was composed of 100 mM Tris-HCl (pH7.5), 250 μM reduced NADH, 10 μM ammonium iron (II) sulfate, and 3 μM of each enzyme component. […] The mixture was vortexed periodically to introduce oxygen for the reaction and was boiled to stop the reaction. After pelleting the precipitants, the supernatant was collected and mixed with 2 volumes of Salkowski reagent made of 0.5 M ferric chloride and 35% perchloric acid for the quantification of residual substrate by measuring the adsorption at 530 nm.

IadK3 = IadK3 (Variovorax paradoxus, UniProt A0A0H2LZ84); experiment: ITC, auxins binding to IadK3; set-up: species or system Variovorax paradoxus CL14
Chain of IadK3 (A0A0H2LZ84 entry or part of it): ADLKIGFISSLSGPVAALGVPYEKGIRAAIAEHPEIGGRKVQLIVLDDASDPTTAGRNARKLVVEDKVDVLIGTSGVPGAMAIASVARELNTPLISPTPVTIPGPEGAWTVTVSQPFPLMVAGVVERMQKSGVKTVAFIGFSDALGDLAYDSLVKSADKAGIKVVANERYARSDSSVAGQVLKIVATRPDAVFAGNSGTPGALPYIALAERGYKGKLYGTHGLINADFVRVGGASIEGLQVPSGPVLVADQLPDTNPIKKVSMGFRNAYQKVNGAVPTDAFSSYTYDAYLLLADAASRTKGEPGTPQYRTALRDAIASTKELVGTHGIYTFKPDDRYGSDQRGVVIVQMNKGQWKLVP
Procedure: as §1

[2] = biological target: IadD (Variovorax paradoxus CL14); experiment: cryo-EM structure; purified IadD/E complex with 20-fold molar excess of IAA, 2.6 Å (2.59 Å), C3 symmetry
[3] = biological target: IadE (Variovorax paradoxus CL14); experiment: SEC; co-expressed IadD/E complex purified by cation exchange, 20 mg/ml, HiLoad 200 column, 25 mM Tris-HCl pH 7.5, 150 mM NaCl, 2 mM DTT; peak fractions on SDS-PAGE
[4] = biological target: IadE (Variovorax paradoxus CL14); experiment: cryo-EM structure; purified IadD/E complex with 20-fold molar excess of IAA, 2.6 Å (2.59 Å), C3 symmetry
[5] = ITC, single-phase isotherm, auxin analogs to IadK2, mean ± SEM, read-out: KD
[6] = IadK2, ITC, replicates, read-out: Kd

Kd (IadK2; [5])	Kd (IadK2; [6])	relative substrate level after reaction [1]	relative substrate level before reaction [1]	Molecule	also measured
–	–	–	–	O=C(O)COc1ccc(Cl)cc1Cl [2,4-D, 2,4-dichlorophenoxyacetic acid]	Kd (IadK2; ITC, single-phase isotherm, auxin analogs to IadK2, mean ± SEM): > 100 µM; Kd (IadK2; IadK2, ITC, replicates): > 100 µM
15.2 ± 6.8 µM	7 µM and 23.8 µM and 15 µM	0.2122 and 0.2346 and 0.1886	1 and 0.9732 and 0.9831	O=C(O)Cc1c[nH]c2cccc(Cl)c12 [4-Cl-IAA, 4-chloroindole-3-acetic acid]	–
–	–	0.2661 and 0.2238 and 0.1936	1 and 1.014 and 0.9931	O=C(O)Cc1c[nH]c2ccc(O)cc12 [5-HIAA, 5-hydroxy indole-3-acetic acid]	–
18 ± 7 µM	28 µM and 11 µM and 16 µM	1.033 and 0.9962 and 0.976	1 and 1.003 and 0.9923	O=C(O)CCCc1c[nH]c2ccccc12 [IBA, indole-3-butyric acid]	–
1.4 ± 0.2 µM	1.6 µM and 1.2 µM and 1.5 µM	0.9755 and 1.034 and 0.9864	1 and 1.004 and 1.006	O=C(O)CCc1c[nH]c2ccccc12 [IPA, indole-3-propionic acid]	–
17 ± 2.2 µM	15 µM and 16 µM and 20 µM	–	–	O=C(O)Cc1cccc2ccccc12 [NAA, 1-naphthylacetic acid]	–
–	–	–	–	O=C(O)Cc1ccccc1 [PAA, phenylacetic acid]	binding to IadK2 (ITC) (IadK2; result in words): no binding; Kd (IadK3): > 100 µM; Kd (IadK3; read-out: ITC binding, IadK3, ITC, replicates): > 100 µM; binding to IadK3 (ITC) (IadK3; result in words): no binding detected
–	–	–	–	O=C(O)CC1C(=O)Nc2ccccc21 (centres unmarked) [oxIAA, 2-oxindole-3-acetic acid]	association with IadK3 (IadK3; result in words, method not stated): weakly associate
–	–	–	–	IadD (enzyme)	stoichiometry N [2]: 3; stoichiometry N (IadD:IadE molar ratio) [3]: 1
–	–	–	–	IadE (enzyme)	stoichiometry N [4]: 3
